# Reference: publication PMC4754331, “Programming of metabolic effects in C57BL/6JxFVB mice by in utero and lactational exposure to perfluorooctanoic acid” (Archives of Toxicology, 2015)
# Read-outs that look alike come from different tables or passages of the source.
# Tests used:
# C57BL/6JxFVB hybrid mice [1] = experiment: Histopathology of brown adipose tissue; format: in vivo
# Description: (§1) Some measurements included only control and one or two dose groups and could therefore not be analyzed as dose–responses. GTT was therefore evaluated by repeated-measures or nested (to account for litter covariance) two-way ANOVAs (Graphpad Prism 5.0, R) to detect differences at the different time points and between the areas under the curve (AUC). Activity measurement, ucp1 expression, WAT adipocyte size and the proxy for cell number were also tested with a nested ANOVA (R). Differences in distribution of BAT histopathology scores between experimental groups were tested for statistical significance in a two-tailed Fisher’s exact test.
# C57BL/6JxFVB hybrid mice [2] = experiment: White adipose tissue adipocyte size and number (perirenal fat pad); format: in vivo; conditions: for White adipose tissue cell number: data not shown; for White adipose tissue adipocyte cell size: perirenal fat pad, 300 and 3000 combined
# Description: as §1
# [3] = Tolerable daily intake and human dietary exposure; set-up: species or system humans
# [4] = cited from earlier work
# [5] = test system: mice (CD-1, NMRI, Balb/c, C57BL/6); set-up: key to Time of effect: P: permanent effect on body weight throughout study; D: delayed (late onset) of effect; T: transient effect; E: effect observed during treatment; conditions: cited from earlier work
# [6] = females, 300 and 3000 combined, p = 0.097 vs control
# [7] = males, 300 and 3000 combined, p < 0.05 vs control
# [8] = Balb/c and C57BL/6, 1000-5000-10,000 µg/kg bw/d, oral gavage PND21-49 (5d/w), ref Yang et al. ([2009])
# [9] = Balb/c, C57BL/6, 2500 (Balb), 7500 (BL6) µg/kg bw/d, oral gavage PND21-49 (5d/w), ref Zhao et al. ([2012])
# [10] = CD-1, 5000 µg/kg bw/d, oral gavage GD1-17, GD8-17, GD12-17, ref White et al. ([2007])
# [11] = CD-1, 10-100-1000 µg/kg bw/d, oral gavage GD10-17, ref Macon et al. ([2011])
# [12] = CD-1, 10-100-1000 µg/kg bw/d, oral gavage PND18-20, ref Dixon et al. ([2012])
# [13] = CD-1, 10–5000 µg/kg bw/d, oral gavage GD1-17, ref Hines et al. ([2009])
# [14] = CD-1, 300-1000-3000 µg/kg bw/d, oral gavage GD1-17, ref Macon et al. ([2011])
# [15] = CD-1, 1000, 3000, 5000, 10,000, 20,000, 40,000 µg/kg bw/d, oral gavage GD1-17, ref Lau et al. ([2006])
# [16] = CD-1, 1000, 5000, 0/1000 + 5 ng/mL via drinking water, GD1-17, ref White et al. ([2011b])
# [17] = CD-1, 1000–40,000 µg/kg bw/d, oral gavage GD1-17, ref Lau et al. ([2006])
# [18] = CD-1, 3000, 5000 µg/kg bw/d, oral gavage GD1-17, ref White et al. ([2009])
# [19] = CD-1, dose 3 [sic], 5 µg/kg bw/d, oral gavage GD1-17, ref Wolf et al. ([2007])
# [20] = NMRI, 580-8,700 µg/kg bw/d, oral gavage PND10, ref Johansson et al. ([2008])
smiles,measurement,setting,value
"O=C(O)C(F)(F)C(F)(F)C(F)(F)C(F)(F)C(F)(F)C(F)(F)C(F)(F)F [PFOA, Perfluorooctanoic acid]",Brown adipose tissue (interscapular fat pad) histopathology,"C57BL/6JxFVB hybrid mice [1]; females vs control females, p = 0.097",trend for lipid depletion
same,Brown adipose tissue lipid accumulation: count of individuals with Grade 3,C57BL/6JxFVB hybrid mice [1]; [6],4
same,"Brown adipose tissue lipid accumulation: count of individuals with Grades 1, 2",C57BL/6JxFVB hybrid mice [1]; [6],14
same,Brown adipose tissue (interscapular fat pad) histopathology,C57BL/6JxFVB hybrid mice [1]; males vs control males,significant lipid accumulation
same,"Brown adipose tissue lipid accumulation: count of individuals with Grades 1, 2, 3",C57BL/6JxFVB hybrid mice [1]; [7],4
same,"Brown adipose tissue lipid accumulation: count of individuals with Grades 4, 5, 6",C57BL/6JxFVB hybrid mice [1]; [7],13
same,White adipose tissue cell number,C57BL/6JxFVB hybrid mice [2]; females,did not differ
same,White adipose tissue adipocyte cell size,"C57BL/6JxFVB hybrid mice [2]; females, p < 0.05",significantly decreased
same,White adipose tissue cell number,C57BL/6JxFVB hybrid mice [2]; males,no differences
same,White adipose tissue adipocyte cell size,C57BL/6JxFVB hybrid mice [2]; males,no differences
same,Factor by which the lowered TDI is higher than the human dietary exposure range in infants,[3],15
same,TDI when applying the developmental BMDL of 46 µg/kg bw/d,[3],230 ng/kg bw/d
same,Elimination half-life in adult mice,"[4]; adult mice, ref Lau et al. [2006]",17 days
same,Time to steady-state level in serum of mice,[4]; ref Lau et al. [2006],≤ 1 week
same,Lowering of levels in offspring after maternal exposure was stopped,"[4]; within 6 weeks, ref Wolf et al. ([2007])",40 times
same,Endpoint bw (age) F,[5]; [8],↓ PND45-46
same,Other relevant effects of PFOA,[5]; [8],PND49: delayed vaginal opening; ↑ abs/rel liver weight; inhibition mammary gland/uterine development
same,Time of effect,[5]; [8],E
same,Endpoint bw (age) F,[5]; [9],↓ PND42-49 (BL6)
same,Other relevant effects of PFOA,[5]; [9],delayed/absent vaginal opening; lack of estrous cycling; ↓ovarian steroid hormonal synthetic enzyme levels
same,Time of effect,[5]; [9],E
same,Other relevant effects of PFOA,"[5]; C57BL/6/Bkl, 300 µg/kg bw/d, diet GD1-PND0, ref Onishchenko et al. ([2011])",M + F: changes in exploratory behavior; M: ↑ activity
same,Other relevant effects of PFOA,"[5]; C57BL/6, 5000 µg/kg bw/d, oral gavage PND21-49 (5d/w), ref Zhao et al. ([2010])",↑ serum progesterone; ↑ mammary gland response to estrogen and/or progesterone
same,Time of effect,"[5]; CD-1, 5000 µg/kg bw/d, oral gavage GD1-17, GD8-17, GD12-17, no follow-up of animals, ref White et al. ([2007])",P^c
same,Endpoint bw (age) F,[5]; [10],↓ PND1-20
same,Endpoint bw (age) M,[5]; [10],↓ PND1-20
same,Other relevant effects of PFOA,[5]; [10],altered mammary gland development in dams + female pups
same,Endpoint bw (age) F,[5]; [11],– PND1-21
same,Endpoint bw (age) M,[5]; [11],– PND1-21
same,Other relevant effects of PFOA,[5]; [11],M + F: hepatomegaly; F: mammary gland developmental abnormalities
same,Endpoint bw (age) F,[5]; [12],– PND21
same,Other relevant effects of PFOA,[5]; [12],PND21: ↑ abs/rel uterine weight (lowest dose)
same,Endpoint bw (age) F,"[5]; CD-1, 10, 100, 300, 1000, 3000, 5000 µg/kg bw/d, oral gavage GD1-17, ref Hines et al. ([2009])","↓ PND1,21 (high doses); ↑ 20-40w (low doses)"
same,Other relevant effects of PFOA,[5]; [13],"21–33w: ↑ insulin; ↑ leptin (low doses); 18 m, weights abs/rel: ↓ abdominal white fat (high doses); ↑ interscapular fat (high doses); – liver"
same,Time of effect,[5]; [13],D T
same,Endpoint bw (age) F,[5]; [14],– PND7-85
same,Endpoint bw (age) M,[5]; [14],– PND7-85
same,Other relevant effects of PFOA,[5]; [14],M + F: delayed mammary gland development
same,Endpoint bw (age) F,[5]; [15],↓ PND1-25; – 6.5w-60w
same,Endpoint bw (age) M,[5]; [15],↓ PND1-25; – 6.5w-60w
same,Other relevant effects of PFOA,[5]; [16],"delay in mammary gland development and/or lactational differentiation (P0, F1, F2)"
same,Time of effect,[5]; [16],T
same,Endpoint bw (age) F,"[5]; CD-1, 1000, 5000, 0/1000 + 5 ng/mL via drinking water, oral gavage GD1-17, GD1-end of study (5 ng/mL groups), ref White et al. ([2011b])",↓ PND42 (F1); ↑ PND14-22 (F2)
same,Other relevant effects of PFOA,[5]; [17],M: earlier preputial separation
same,Time of effect,[5]; [17],T
same,Endpoint bw (age) F,[5]; [18],↓ PND21-85
same,Other relevant effects of PFOA,[5]; [18],weaning age: abnormal (delay) mammary gland development; ↑ rel liver weight
same,Time of effect,[5]; [18],T
same,Endpoint bw (age) M,"[5]; CD-1, 3000, 5000 µg/kg bw/d, oral gavage GD1-17, ref Wolf et al. ([2007])",↓ PND1-22; ↑ PND85 - 35w (dose 3000)
same,Endpoint bw (age) F,[5]; [19],↓ PND1-22
same,Other relevant effects of PFOA,[5]; [19],"M + F, PND22: ↑ abs/rel liver weight"
same,Time of effect,[5]; [19],T; D (dose 3000)
same,Endpoint bw (age) M,[5]; [20],– PND10 + 28
same,Other relevant effects of PFOA,[5]; [20],8/16w: neurotoxicity
same,Most sensitive developmental BMDL,[5]; ref Lau et al. [2006],616 µg/kg bw/d
